Where a name gives a salt, the structure may show the parent alone.
Experiments:
Assay in all cases: IC50 (viability, PrestoBlue) (log10 nM)
Conditions in all cases: exposure time: 72 h
[1] = tested on: murine gastric organoid RAS-activated (Kras G12D; Tp53 R172H)
Experimental: (§1)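 Murine gastric corpus organoids (normal uninduced; RAS-activated Kras G12D/Tp53 R172H; diffuse Cdh1/Apc loss; WNT-activated Apc loss/Tp53 R172H) were seeded in Matrigel into pre-spotted 384-well plates. The plates held a 196-compound library at 6.7 nM to 25,004 nM (9 doses) and were incubated 72 h. Viability was read by PrestoBlue fluorescence (560/590 nm). IC50 came from non-linear regression (Prism), reported as log10 IC50 in nM, mean of 3 passages x 2 wells.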

[2] = tested on: murine gastric organoid WNT-activated (Apc fl/fl; Tp53 R172H)
Experimental: as §1

[3] = tested on: murine gastric organoid diffuse (Cdh1 fl/fl; Apc fl/fl)
Experimental: as §1

[4] = tested on: murine normal gastric organoid
Experimental: as §1

SMILES | IC50 (log10 nM) [1] | IC50 (log10 nM) [2] | IC50 (log10 nM) [3] | IC50 (log10 nM) [4]
O=C1NC(=O)[C@@H](c2cn3c4c(cccc24)CCC3)[C@@H]1c1c[nH]c2ccccc12 [Tivantinib] | 2.4 | 2.79 | 3.1 | 2.87
CC[C@]12C=CCN3CC[C@@]4(c5cc([C@@]6(C(=O)OC)C[C@@H]7C[C@@H](C(C)(F)F)CN(Cc8c6[nH]c6ccccc86)C7)c(OC)cc5N(C)[C@H]4[C@@](O)(C(=O)OC)[C@@H]1OC(C)=O)[C@@H]32 [Vinflunine tartrate] | 2.32 | 1.63 | 2.23 | 2.09
CO[C@@]12[C@H](COC(N)=O)C3=C(C(=O)C(C)=C(N)C3=O)N1C[C@@H]1N[C@@H]12 [Mitomycin C] | 2.5 | 2.7 | 2.68 | 2.64
CNC(=O)c1ccccc1Sc1ccc2c(/C=C/c3ccccn3)n[nH]c2c1 [Axitinib] | 3.3 | 2.75 | 3.78 | 3.98
CCNC(=O)C[C@@H]1N=C(c2ccc(Cl)cc2)c2cc(OC)ccc2-n2c(C)nnc21 | 3.3 | 1.54 | 3.13 | 2.77
N#CCNC(=O)c1ccc(-c2ccnc(Nc3ccc(N4CCOCC4)cc3)n2)cc1 [CYT387] | 3.51 | 4.05 | 3.58 | 3.48
Cc1cc(C)c(/C=C2\C(=O)Nc3ccccc32)[nH]1 [SU 5416] | 4.36 | 3.77 | 4.33 | 4.03
COc1cc2c(Oc3ccc4[nH]c(C)cc4c3F)ncnc2cc1OCCCN1CCCC1 [Cediranib maleate] | 2.93 | < 0.826 | 2.67 | 3.38
O=c1[nH]cc(F)c(=O)[nH]1 [fluorouracil] | 3.32 | 4.09 | 3.28 | 3.4
COc1cccc2c1C(=O)c1c(O)c3c(c(O)c1C2=O)C[C@@](O)(C(C)=O)C[C@@H]3O[C@H]1C[C@H](N)[C@H](O)[C@H](C)O1 [Daunorubicin hydrochloride] | 1.6 | 1.73 | 1.77 | 1.56
N.N.[Cl][Pt][Cl] [Cisplatin] | 3.54 | 3.59 | 3.13 | 3
Oc1ncc(N(CCCl)CCCl)c(O)n1 [Uramustine] | 3.2 | 3.68 | 3.69 | 3.3
CCCCCCCCCCCCCCCCCCOP(=O)([O-])OC1CC[N+](C)(C)CC1 [Perifosine] | < 0.826 | 1.16 | > 4.4 | < 0.826
CN(Cc1cnc2nc(N)nc(N)c2n1)c1ccc(C(=O)N[C@@H](CCC(=O)O)C(=O)O)cc1 [Methotrexate] | 3.43 | 4.36 | > 4.4 | 3.41

Source: the supplement of paper PMC9549728
